Measured values taken from patent US5661182A, “Method for lowering oxygen affinity of hemoglobin in redcell suspensions, in whole blood and in vivo” (Virginia Commonwealth University, priority 1995, dated 1997).
Entries after “also recorded” stand apart in the source; their conditions may differ.

Experiments:
[1] = biological target: hemoglobin in fresh bovine red blood cells (Bos taurus, UniProt P01966+P02070); test: Oxygen binding of fresh bovine red blood cells (p50); format: cell-based; settings: for RBC (p50): bovine RBC, effector 0.5 mM, pH 7.4, 37 °C
Sequence of hemoglobin in fresh bovine red blood cells (P01966 whole entry): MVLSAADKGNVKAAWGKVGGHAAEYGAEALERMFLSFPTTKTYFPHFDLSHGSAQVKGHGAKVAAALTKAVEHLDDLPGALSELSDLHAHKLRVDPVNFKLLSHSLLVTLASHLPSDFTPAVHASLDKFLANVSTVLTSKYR
Sequence of hemoglobin in fresh bovine red blood cells (P02070 whole entry): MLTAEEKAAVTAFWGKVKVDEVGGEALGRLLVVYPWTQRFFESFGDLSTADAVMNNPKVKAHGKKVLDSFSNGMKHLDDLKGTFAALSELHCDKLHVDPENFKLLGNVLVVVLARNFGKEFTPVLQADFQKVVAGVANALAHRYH
Protocol: (§1) Human blood was collected on heparin from healthy nonsmoking donors. Bovine blood was provided by Pr Delpech, INA (Paris-Grignon). Red blood cells were washed three times in isotonic buffer, kept at 4° C., and used within 24 h after sampling. Hemoglobin Yakima, a high-oxygen-affinity variant [α2 β2 99 (G1) Asp>>His], was obtained from a known heterozygous carrier. Fresh Yakima red cells were processed in the same way as described above.
(§2) L3,5 and L3,4,5 were provided by Dr. Lalezari (Montefiore Hospital, New York); RSR-4 [2-[4-[[(3,5-dichloroanilino)carbonyl]methyl]phenoxy]-2-methylpropionic acid]and RSR13 [2-4-[[(3,5- dimethylanilino)carbonyl]methyl]phenoxy]-2-methylpropionic acid] have been synthesized following the procedure described in Randad et al. (J. Med. Chem. 34,752 (1991)). Human serum albumin (HSA), bovine serum albumin (BSA) and 4,4'diisothiocyanatostilbene-2,2'-disulfonate (DIDS) were purchased from Sigma (St. Louis, Mo.). Due to their low solubility in aqueous buffer, 10 mM stock solutions of the compounds were prepared in a slight exccess of sodium bicarbonate and back-titrated to pH 7.4. For example, RSR-4 or RSR-13 was dissolved at 60° C. in a 140 mM NaCl and 50 mM bis-Tris buffer at room temperature upon progressive addition of NaHCO3 to obtain 10 mM stock solutions. The pH was carefully adjusted to 7.4 after complete solubilization and before use of the solutions. Fresh solutions were prepared each week. Stock solutions of DIDS (1 mM) were prepared, in the dark, on the day of the experiments in a pH 7.4 buffer. Human serum albumin (defatted HSA) and bovine serum albumin (BSA) were prepared freshly as 1 mM stock solutions, pH 7.4. Equilibrium Measurements. The allosteric modulation of the effectors on freshly prepared solutions of hemoglobin or red cell suspensions was measured by the change in p50, the partial pressure of oxygen for half-saturation. Oxygen equilibrium curves (OEC) were carried out with the Hemox analyzer (TCS, Southampton, Pa.) under the following conditions: pH 7.4, 140 mM NaCl and 50 mM bis-Tris buffer at 37° C. In all experiments, the concentration of hemoglobin in the red cell suspensions was 20-25 μM hemoglobin tetramer (Hb4) as measured by Drabkin's method (cyanomethemoglobin) at the end of each recording. The final concentration of the allosteric effector in the cuvette was 0.5 mM, resulting in an effector/Hb4 ratio of 20 in the absence of albumin. OEC were also made in the same buffer containing 12.5, 25, 50, and 100 μM HSA (for human red cell suspensions) or BSA (for bovine cell suspensions). The serum albumin experiments were carried out with traces of an antifoaming agent. This agent has no deleterious effect on the red cell suspensions. The molar ratio of albumin to tetrameric hemoglobin was varied from 0.5 (at 12.5 μM HSA) to 4 (at 100 μM HSA); in whole blood this ratio is approximately 0.3 (0.7 mM albumin plus plasma proteins/2.25 mM Hb4). Therefore, the concentration of albumin used in the present studies was always larger relative to tetrameric hemoglobin than that found in whole blood.
Bovine Red Cell Studies. Table 2 presents data for oxygen binding measurements for fresh bovine red blood cells and isolated Hb solutions on addition of the effectors L3,5, RSR-4, and RSR-13. The experimental conditions used were the same as described in conjunction with Table 1 for human red blood cells. The oxygen equilibrium curves for Hb solutions were made at pH 7.2, 100 mM NaCl and 50 mM bis-Tris buffer at 25° C. Catalase (20 μg/mL) and 50 μM EDTA were added to oppose oxidation of the hemes. The concentration of the effectors was 0.5 mM in all conditions. In Table 2, BSA is bovine serum albumin and P50 (mmHg) is the pO2 for 50% saturation.

[2] = system: hemoglobin; test: Comparison of allosteric effector strength (right shift of oxygen equilibrium curve); format: biochemical; settings: compounds of FIG. 1
[3] = biological target: hemoglobin in fresh human red blood cells (Homo sapiens, UniProt P68871+P69905); test: Oxygen equilibrium curves of fresh human red cell suspensions (p50); format: cell-based; settings: for potency in raising p50 / lowering the oxygen affinity: fresh human red cells, absence of albumin; for P50: effector 0.5 mM, pH 7.4, 37 °C; for inhibition of the allosteric effect by albumin: human red cells, 50 or 100 μM HSA
Sequence of hemoglobin in fresh human red blood cells (P69905 whole entry): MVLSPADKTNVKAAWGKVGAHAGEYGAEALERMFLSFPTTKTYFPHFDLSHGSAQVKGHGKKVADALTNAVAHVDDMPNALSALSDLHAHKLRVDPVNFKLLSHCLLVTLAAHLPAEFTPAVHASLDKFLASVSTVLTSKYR
Sequence of hemoglobin in fresh human red blood cells (P68871 whole entry): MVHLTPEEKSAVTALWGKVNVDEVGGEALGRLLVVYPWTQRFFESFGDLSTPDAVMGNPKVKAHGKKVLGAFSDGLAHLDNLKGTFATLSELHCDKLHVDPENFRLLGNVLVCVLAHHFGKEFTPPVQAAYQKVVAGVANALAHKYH
Protocol: as §1, §2
Equilibrium oxygen binding curves were also recorded for red cell suspensions (10% hematocrit) that had been reacted for 30 min in the dark at 37° C. with 20 μM DIDS, a specific inhibitor of the red cell membrane anion channel. Kinetic Experiments. The kinetics of the interaction between the effectors and intracellular hemoglobin were measured in the absence and presence of varying concentrations of HSA. The red cell suspensions were equilibrated under room air (pO2 =140 mmHg) at 37° C. in the optical cuvette of the Hemox analyzer, which provides a constant stirring of the suspensions. […] Changes in absorbance were recorded and stored on tape for further analyses. […]

[4] = biological target: intracellular hemoglobin, human red cells (Homo sapiens, UniProt P68871+P69905); test: Kinetics of interaction between effectors and intracellular hemoglobin (absorbance at 560 nm) in human red cell suspensions; format: cell-based; settings: for ΔA560: effector 0.5 mM, room air
Sequence of intracellular hemoglobin, human red cells (P69905 whole entry): as the sequence (P69905 whole entry) above
Sequence of intracellular hemoglobin, human red cells (P68871 whole entry): as the sequence (P68871 whole entry) above
Protocol: Equilibrium oxygen binding curves were also recorded for red cell suspensions (10% hematocrit) that had been reacted for 30 min in the dark at 37° C. with 20 μM DIDS, a specific inhibitor of the red cell membrane anion channel. Kinetic Experiments. The kinetics of the interaction between the effectors and intracellular hemoglobin were measured in the absence and presence of varying concentrations of HSA. The red cell suspensions were equilibrated under room air (pO2 =140 mmHg) at 37° C. in the optical cuvette of the Hemox analyzer, which provides a constant stirring of the suspensions. […] Changes in absorbance were recorded and stored on tape for further analyses.
An increase in absorbance at 560 nm (εmax for deoxy-Hb in the visible spectrum) under room air indicates the formation of partially deoxygenated Hb in the red cells and a decreased oxygen affinity of Hb, provided that the pH is held constant.
Examples of these kinetic recordings are illustrated in FIG. 4. Two indices were calculated from the experimental values: ΔA560 is the difference in optical density from the base line to the plateau and t1/2 is […]. […]

[5] = human RBC pre-incubated 30 min with DIDS, no HSA
[6] = human RBC suspension, 50 μM HSA
[7] = human RBC suspension, 100 μM HSA
[8] = time for half-ΔA560, effector 0.5 mM, 12.5 μM HSA, 37 °C
[9] = time for half-ΔA560, effector 0.5 mM, 50 μM HSA, 37 °C
[10] = time for half-ΔA560, effector 0.5 mM, 100 μM HSA, 37 °C
[11] = time for half-ΔA560, effector 0.5 mM, no HSA, 37 °C

Row | RBC (p50) ([1]; no BSA) | order of potency in lowering the oxygen affinity ([1]; bovine red cells) | p50 shift relative to control at 500 µM ([1]; bovine red cells, 0.5 mM) | P50 [3, 5] | P50 [3, 6] | P50 [3, 7] | P50 ([3]; human RBC suspension, no HSA) | ΔA560 ([4]; 12.5 μM HSA, 37 °C) | ΔA560 ([4]; 50 μM HSA, 37 °C) | ΔA560 ([4]; 100 μM HSA, 37 °C) | ΔA560 ([4]; no HSA, 37 °C) | t1/2 [4, 8] | t1/2 [4, 9] | t1/2 [4, 10] | t1/2 [4, 11] | t1/2 ([4]; in the absence of albumin) | Structure (SMILES) | allosteric effector strength [2] | potency in raising p50 / lowering the oxygen affinity [3] | inhibition of the allosteric effect by albumin [3] | also measured
1 | 35 mmHg | RSR-4>>L3,5>RSR-13 | 30% | 54 mm Hg | 32 mm Hg | 28 mm Hg | 60 mm Hg | 0.124 | 0.058 | 0.029 | 0.181 | 1.54 min | 1.83 min | 1.92 min | 0.55 min | – | CC(C)(Oc1ccc(NC(=O)Nc2cc(Cl)cc(Cl)c2)cc1)C(=O)O [L3,5, reference compound] | L3,5≈RSR-4>RSR-13; also recorded: much stronger allosteric effect | comparable; also recorded: almost equally potent effectors; also recorded: L3,5≈RSR-4>RSR-13 | – | –
2 | 54 mmHg | RSR-4>>L3,5>RSR-13 | – | 49 mm Hg | 44.0 mm Hg | 36 mm Hg | 52.5 mm Hg | 0.107 | 0.086 | 0.042 | 0.152 | 1.53 min | 1.27 min | 1.45 min | 1 min | 1 min | CC(C)(Oc1ccc(CC(=O)Nc2cc(Cl)cc(Cl)c2)cc1)C(=O)O [RSR-4, 2-[4-[[(3,5-dichloroanilino)carbonyl]methyl]phenoxy]-2-methylpropionic acid] | L3,5≈RSR-4>RSR-13 | comparable; also recorded: almost equally potent effectors; also recorded: L3,5≈RSR-4>RSR-13 | less inhibited by albumin than the closely related compound L3,5; also recorded: much lower inhibition of RSR-4 by serum albumin than that observed with L3,5; also recorded: much less inhibited by 50 or 100 μM albumin than observed with L3,5 | RBC (p50) ([1]; 50 μM BSA): 45 mmHg; effect on control p50 ([1]; bovine red cells, 0.5 mM, without and with 50 μM BSA): doubling of the control p50 and persists even in the presence of 50 μM BSA; P50 ([3]; human RBC suspension, 12.5 μM HSA): 48.5 mm Hg
3 | 31 mmHg | RSR-4>>L3,5>RSR-13 | 15% | – | 34.0 mm Hg | 32.6 mm Hg | 37.8 mm Hg | – | 0.082 | 0.067 | 0.085 | – | 2.3 min | 2.08 min | 2.32 min | over 2 min | Cc1cc(C)cc(NC(=O)Cc2ccc(OC(C)(C)C(=O)O)cc2)c1 [RSR-13] | L3,5≈RSR-4>RSR-13 | weakest in reducing the oxygen affinity of Hb, relative to L3,5 or RSR-4; also recorded: L3,5≈RSR-4>RSR-13 | much less affected by serum albumin, and its effect persists even in the presence of 100 1-M HSA | change in t1/2 upon addition of albumin ([4]; HSA added): No change
